US8980564B2, “Predictive markers for taxane responsiveness and methods of use thereof” (The Governors of the University of Alberta, priority 2009, dated 2015)

Experiments:
Bad = experiment: Subcellular fractionation, Bad localization by Western blotting; details: MCF-7, MDA-MB-468, SKBR-3; 25 nM paclitaxel 48 h or 2.5 uM STS 4 hours
Bad:Bcl-XL = experiment: Co-immunoprecipitation of Bad with Bcl-XL; details: 25 nM paclitaxel 48 h or 2.5 uM STS 4 hours
breast cancer = experiment: Survival analysis of breast cancer patients after adjuvant docetaxel-based chemotherapy, stratified by Bad staining; type: in vivo, human; details: 180 women, multivariate modeling
Protocol: Tissue micoarrays were made from formalin fixed breast tissues in triplicate 0.6 mm cores using the TMArrayer™. Tissues on slides were deparaffinized in xylene and rehydrated in decreasing concentrations of ethanol to water. Endogenous peroxidase was quenched in 0.3% H2O2 for 10 minutes. For antigen retrieval, slides were placed in boiling citrate buffer pH 6.0 for 10 minutes followed by rinsing in water for 10 minutes. Tissues were incubated with the BAD antibody (Cell Signaling Technology) at a dilution of 1/25 at 4° C. overnight in a humidified container or with Bik antibody (Cell signaling Technology) at a dilution of 1/50 at room temperature in a humidified container. Slides were washed 2 times in PBS for 5 minutes. For the secondary antibody, Anti-Rabbit EnVision+System-HRP (Dako) was incubated on the tissues at room temperature for 30 minutes. Slides were washed 2 times in PBS and then tissues were incubated with DAB (Dako) for 10 minutes. Slides were rinsed in water for 10 minutes followed by a soak in 1% Copper Sulfate for 5 minutes. Haematoxylin was used to counterstain the tissues. […] Staining intensity was scored as 0 (absent), 1 (weak), or 2 (strong). […] Using ROC, an optimized cutpoint of 0.57 was chosen for Bad expression and an optimized cutpoint of 0.1 was chosen for Bik expression, and patients were analyzed based on this cutpoint. […]

MCF-7 cells = experiment: DNA content analysis by propidium iodide staining (cell cycle); type: cell-based, human; details: up to 24 hours in paclitaxel
Protocol: Samples were fixed at −20° C. in ice-cold 70% ethanol for a minimum of 24 hours. After fixation, the samples were stained with 20 ug/ml propidium iodide, 2 mg/ml RNase, 0.1% Triton X-100 in PBS for 30 minutes at 4° C. Samples were analyzed in the FL-2 channel on the FACScan as previously described, with the exception that doublet discrimination was achieved by gating on the smaller width G2 cells as determined by analysis of pulse width versus pulse area (Goping et al., 2008).
To verify that the increased proportion of cells in G1 was due to delayed G1 exit and not increased G1 entry, G1 entry was inhibited by arresting cells at G2/M with paclitaxel. […] In time course analyses, the progression of cells from G1 through S to G2/M was delayed in Bad-depleted cells relative to control transfected cells. […] Based on these observations, and again while not wishing to be bound by theory, it was concluded that Bad contributes to cell cycle progression by facilitating exit from the G1 phase of the cell cycle and is supported by a similar role of Bad in rat fibroblasts (Chattopadhyay et al., 2001).

MCF-7 cell line = experiment: Apoptosis assays (TMRE loss, annexin V) in MCF-7; type: cell-based, human; details: 25 nM paclitaxel
Protocol: (§1) Apoptosis assays were performed as described previously (Czernick et al., 2009). Briefly, breast cancer cell lines were treated with dimethyl sulfoxide (DMSO) vehicle control or 25 nM paclitaxel, which corresponds to a clinically relevant dose (Blagosklonny and Fojo, 1999; Jordan et al., 1996). After treatment, samples were divided and analyzed for apoptosis. Apoptosis was evaluated by fluorescence-activated cell sorting (FACS) analysis using the following apoptotic markers: (i) mitochondrial dysfunction [loss of mitochondrial electrochemical potential and decreases in tetramethyl rhodamine ethyl ester (TMRE)]. Percent specific TMRE loss was determined as (% TMRE negative cells of treated sample−% TMRE negative cells of untreated control sample); (ii) increases in phosphatidylserine externalization (Annexin V). Percent specific annexin V positivity was determined as (% annexin V positive cells of treated sample−% annexin V positive cells of untreated control sample).
Each cell line was treated with 25 nM of paclitaxel, which induces a clinically relevant intracellular accumulation of the drug in tissue culture conditions (Derry et al., 1998; Jordan et al., 1996). After the indicated amount of time, apoptosis was assessed by measuring mitochondrial electrochemical potential loss (TMRE loss) and phosphatidyl serine externalization (annexin V positivity) (FIG. 1A).

breast cancer cell lines = experiment: Apoptosis assays (TMRE loss, annexin V) in a panel of five breast cancer cell lines; type: cell-based, human; details: 25 nM paclitaxel; TMRE loss and annexin V positivity
Protocol: as §1
To investigate which BH3-only proteins are involved in paclitaxel-induced apoptosis, a panel of five validated breast cancer cell lines acquired from Dr. Gordon Mills (M.D. Anderson Cancer Center, U. of Texas) was analyzed; validated cells were used to avoid any controversy with respect to lineage authenticity (Graham et al., 1986; Osborne et al., 1987). […]

Bcl-XL = Bcl-XL protein level in treated cells; type: cell-based, human; details: paclitaxel-treated cells
Excerpt: In fact, mitotic arrest-mediated repression of Bcl-XL contributes to cell death via liberation of Bax (Upreti et al., 2008).

Structure (SMILES)	mitochondrial translocation of Bad (Bad)	association of Bad and Bcl-XL (Bad:Bcl-XL)	hazard ratio of relapse, low Bad tumour staining intensity (breast cancer; 95% CI 1.05-3.66)	death hazard ratio, low Bad tumour staining intensity (breast cancer; 95% CI 1.05-3.66 as printed)	mitotic arrest (G2/M) (MCF-7 cells)	cell death based on mitochondrial dysfunction and cellular morphology (MCF-7 cell line; MCF-7)	loss of mitochondrial potential (TMRE loss) (MCF-7 cell line; MCF-7)	phosphatidyl serine externalization (annexin V positivity) (MCF-7 cell line; MCF-7, cells do not express caspase 3)	relative paclitaxel sensitivities of the breast cancer cell lines, rank order of increasing sensitivity (breast cancer cell lines)	levels of Bcl-XL protein (Bcl-XL)
CN[C@@H]1C[C@H]2O[C@@](C)([C@@H]1OC)n1c3ccccc3c3c4c(c5c6ccccc6n2c5c31)C(=O)NC4 [STS, staurosporine]	migrated to mitochondria	remained as a complex								
CC(=O)O[C@@]12CO[C@@H]1C[C@H](O)[C@@]1(C)C(=O)[C@H](O)C3=C(C)[C@@H](OC(=O)[C@H](O)[C@@H](NC(=O)OC(C)(C)C)c4ccccc4)C[C@@](O)([C@@H](OC(=O)c4ccccc4)[C@H]21)C3(C)C [docetaxel]			1.96	3.65						
CC(=O)O[C@H]1C(=O)[C@@]2(C)[C@H]([C@H](OC(=O)c3ccccc3)[C@]3(O)C[C@H](OC(=O)[C@H](O)[C@@H](NC(=O)c4ccccc4)c4ccccc4)C(C)=C1C3(C)C)[C@]1(OC(C)=O)CO[C@@H]1C[C@@H]2O [paclitaxel]	did not induce mitochondrial translocation of Bad	decreased association of Bad and Bcl-XL			induced mitotic arrest	induced significant death	robust loss of mitochondrial potential	blunted	MDA-MB-231, T47-D, MDA-MB-468, MCF-7 and SKBR-3	reduced levels of Bcl-XL protein
